Test results published in patent publication US9797913B2, “Alzheimer's disease-specific alterations of the ERK1/ERK2 phosphorylation ratio-alzheimer's disease-specific molecular biomarkers (ADSMB)” (BLANCHETTE ROCKEFELLER NEUROSCIENCES INSTITUTE, priority 2005, dated 2017).
Entries after “also recorded” stand apart in the source; their conditions may differ.

Key:
[1] = test system: Erk1/Erk2 phosphorylation ratio in non-AD control (AC) cells; assay: Aβ(1-42) induction of the Alzheimer's phenotype (ADSMB, bradykinin-induced p-Erk1/p-Erk2 ratio) in control fibroblasts; format: cell-based, human; settings: for ADSMB: then 10 nM bradykinin 10 min
Description: Preparation of Aβ(1-42) solution: Initially 1 mg of Aβ(1-42) was dissolved in hexa-fluoroisopropanol (Sigma, St. Louis, Mo.) at a concentration of 3 mM and separated into aliquots in sterile microcentrifuge tubes. Hexa-fluoroisopropanol was removed under vacuum and lyophilized. The Aβ(1-42) films were stored at −20° C. under dry conditions until use. 5 mM Aβ(1-42) stock solution was prepared from the stored Aβ(1-42) in DMSO just before the experiment. 1.0 μM stock solution was prepared in DMEM medium (supplemented with 10% serum and penicillin/streptomycin) by dissolving Aβ(1-42) from a DSMO stock solution. DMEM medium containing 1.0 μM Aβ(1-42) was added to non-AD control (AC) cells at 90-100% confluence stage in 25 mL cultured flask and kept at cell culture incubator (at 37° C. with 5% CO2) for 24 hrs. Cells were ‘starved’ in serum free medium (DMEM) for 16 hours. 10 nM bradykinin (in DMSO) solution was prepared in DMEM medium with 10% serum. 7 mL of 10 nM BK solution were added to the 25 mL cultured flask and incubated at 37° C. for 10 min. For the controls, the same amount of DMSO was added in DMEM medium with 10% serum. 7 mL of this medium with DMSO (<0.01%) were added to the 25 mL cultured flask and incubated at 37° C. for 10 min. After washing four times with cold (4° C.) 1×PBS, flasks were kept in a dry ice/ethanol mixture for 15 min. Flasks were removed from the dry ice/ethanol mixture and then 100 μL of lysis buffer (10 mM Tris, pH 7.4, 150 mM NaCl, 1 mM EDTA, 1 mM EGTA, 0.5% NP-40, 1% Triton X-100, 1% protease inhibitor cocktail, 1% ser/thr/tyrosine phosphatase inhibitor cocktails) was added into each flask. Flasks were kept on an end-to end shaker in a cold room (4° C.) for 30 min and cells were collected from each flask with a cell scraper. Cells were sonicated and then centrifuged at 14000 rpm for 15 min, and the supernatant was used for Western blotting after total protein assay. Total Erk1, Erk2 and the phosphorylated forms of Erk1 and Erk2 (p-Erk1, p-Erk2) were determined using specific antibodies: anti-regular Erk1/2 and anti-phospho ERK1/2. At least three bradykinin treated flasks (BK+) and correspondingly three control flasks (BK−) were included for each cell line to minimize errors in measurement.
(§1) Signals of the Western blot protein bands were scanned with a Fuji LAS-1000 Plus scanner. The intensity of Erk1, Erk2, p-Erk1 and p-Erk2 were measured from scanned protein bands by a specially designed software developed by Dr. Nelson in our Institute (Blanchette Rockefeller Neurosciences Institute, Rockville, Md.). The intensity was measured by strip densitometry. The protein bands were selected by strip and each pixel density was calculated after background subtraction by the software. The ratios of p-Erk1/p-Erk2 were calculated from sample (BK+) and control (BK−) respectively. The following formula was used to distinguish between AD and non-AD cases: ADSMB=[p-Erk1/p-Erk2]^BK+−[p-Erk1/p-Erk2]^BK− ADSMB=Alzheimer's Disease-Specific Molecular Biomarker

[2] = test system: Erk1/Erk2 phosphorylation ratio in Aβ(1-42)-treated human fibroblasts; assay: Bryostatin reversal of the Aβ(1-42)-induced Alzheimer's phenotype (ADSMB) in control fibroblasts; format: cell-based; settings: AC cell lines, 1.0 μM Aβ(1-42) 24 hrs followed by 0.1 nM bryostatin 20 min
Description: Preparation of Aβ(1-42) solution: Initially 1 mg of Aβ(1-42) was dissolved in hexa-fluoroisopropanol (Sigma, St. Louis, Mo.) at a concentration of 3 mM and separated into aliquots in sterile microcentrifuge tubes. Hexa-fluoroisopropanol was removed under vacuum and lyophilized. The Aβ(1-42) films were stored at −20° C. under dry conditions until use. 5 mM Aβ(1-42) stock solution was prepared from the stored Aβ(1-42) in DMSO just before the experiment. 1.0 μM stock solution was prepared in DMEM medium (supplemented with 10% serum and penicillin/streptomycin) by dissolving Aβ(1-42) from a DSMO stock solution. […] Total Erk1, Erk2 and the phosphorylated forms of Erk1 and Erk2 (p-Erk1, p-Erk2) were determined using specific antibodies: anti-regular Erk1/2 and anti-phospho ERK1/2. […]
as §1, with “The following formula was used to distinguish between AD and non-AD cases: ADSMB=[p-Erk1/p-Erk2]^BK+−[p-Erk1/p-Erk2]^BK− ADSMB=Alzheimer's Disease-Specific Molecular Biomarker” left out

[3] = test system: Aβ(1-42) levels in the brains; settings: transgenic mice with human AD genes; cited from earlier work
AD-transgenic mice = settings: chronic exposure; cited from earlier work
PKC = settings: human fibroblasts; cited from earlier work

Row | Compound | ADSMB Average ± SE ([1]; average of AC cell lines, 1.0 μM Aβ(1-42) 24 hrs, P < 0.001 vs control) | ADSMB ([1]; cell line AG06959, 1.0 μM Aβ(1-42) 24 hrs) | ADSMB ([1]; cell line AG07732, 1.0 μM Aβ(1-42) 24 hrs) | ADSMB ([1]; cell line AG09977, 1.0 μM Aβ(1-42) 24 hrs) | ADSMB ([1]; cell line AG11363, 1.0 μM Aβ(1-42) 24 hrs) | ADSMB after Aβ(1-42) treatment (in words) ([1]; control (non-AD) cell lines, 1.0 μM Aβ(1-42), 24 hours) | ADSMB after Aβ(1-42) then bryostatin treatment (in words) [2] | ADSMB after Aβ(1-42) then bryostatin treatment (in words) ([2]; listed as bryostatin) | Aβ(1-42) levels in the brains [3] | survival (AD-transgenic mice) | PKC activation (PKC)
1 | Beta amyloid (1-42) [Aβ] | 0.13 ± 0.01 | 0.13 | 0.12 | 0.13 | 0.16 | abnormal positively valued ADSMB phenotype; also recorded: higher and positive | – | – | – | – | –
2 | CCC/C=C/C=C/C(=O)O[C@H]1/C(=C/C(=O)OC)C[C@H]2C[C@H]([C@@H](C)O)OC(=O)C[C@H](O)C[C@@H]3C[C@H](OC(C)=O)C(C)(C)[C@](O)(C[C@@H]4C/C(=C/C(=O)OC)C[C@H](/C=C/C(C)(C)[C@]1(O)O2)O4)O3 [Bryostatin] | – | – | – | – | – | – | entirely reversed | small and negative | reduce Aβ(1-42) levels | greatly increased survival | enhance PKC activation
